In patent publication US20250368666A1, “INDAZOLE COMPOUNDS” (TYRA BIOSCIENCES, INC., priority 2022, published 2025) one finds Kd and IC50 data, which are given here for five compounds.

Usually Kd stands for a measure of binding affinity in units of concentration. The IC50 is the point on the concentration scale where inhibition reaches its midpoint. Read a high IC50 as a need for much substance.

In test [1] the target is T1, FGFR3 (V555M) (Homo sapiens, UniProt P22607, V555M).
T1 construct: made in house; host or cells: E. coli (BL21-derived), T7 phage
T1 sequence (P22607 23-806 V555M): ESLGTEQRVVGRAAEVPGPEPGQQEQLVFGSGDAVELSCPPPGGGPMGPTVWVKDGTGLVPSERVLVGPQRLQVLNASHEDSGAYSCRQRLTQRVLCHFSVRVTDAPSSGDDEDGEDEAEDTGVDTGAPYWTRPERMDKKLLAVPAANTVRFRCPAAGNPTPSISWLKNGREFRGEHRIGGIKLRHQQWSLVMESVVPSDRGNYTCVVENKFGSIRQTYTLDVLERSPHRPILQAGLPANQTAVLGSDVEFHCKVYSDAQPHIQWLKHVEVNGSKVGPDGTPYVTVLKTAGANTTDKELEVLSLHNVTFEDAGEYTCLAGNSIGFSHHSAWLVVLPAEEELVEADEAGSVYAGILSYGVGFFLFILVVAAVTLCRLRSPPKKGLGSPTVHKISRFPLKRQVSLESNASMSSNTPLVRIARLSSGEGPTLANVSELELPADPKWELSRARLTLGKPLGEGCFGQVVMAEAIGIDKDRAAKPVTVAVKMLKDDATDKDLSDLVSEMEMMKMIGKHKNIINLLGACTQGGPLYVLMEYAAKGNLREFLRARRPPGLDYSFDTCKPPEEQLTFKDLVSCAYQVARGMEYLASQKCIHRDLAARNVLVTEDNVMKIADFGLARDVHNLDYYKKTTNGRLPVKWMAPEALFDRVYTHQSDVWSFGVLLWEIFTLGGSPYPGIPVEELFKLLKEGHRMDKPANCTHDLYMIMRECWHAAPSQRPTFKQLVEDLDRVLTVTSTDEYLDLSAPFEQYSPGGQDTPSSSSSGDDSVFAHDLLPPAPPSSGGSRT
The test is described as follows: Kinase binding assay (kinase-tagged T7 phage, affinity beads, qPCR), Kd. Conditions: V555M mutant; read-out: FGFR3 (V555M) (Kd nM). The gist of the method:
(§1)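 T7 phage displaying each kinase, grown in a BL21-derived E. coli host at 32° C until lysis, competed with test compound for biotinylated ligand immobilised on streptavidin beads. Bead-bound kinase was eluted and quantified by qPCR. Kd came from an 11-point 3-fold dilution series fitted to the Hill equation with slope fixed at −1.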
A general note: Quantitative PCR measures a nucleic acid by following its amplification.

Test [2] concerns the target T2, FGFR3 (Homo sapiens, UniProt P22607).
T2 construct: made in house; host or cells: E. coli (BL21-derived), T7 phage
The description is as above. Conditions: read-out: FGFR3 (Kd nM). The gist of the method:
as §1

In test [3] the target is T3, FGFR4 (Homo sapiens, UniProt P22455).
T3 construct: made in house; host or cells: E. coli (BL21-derived), T7 phage
T3 sequence (P22455 22-802): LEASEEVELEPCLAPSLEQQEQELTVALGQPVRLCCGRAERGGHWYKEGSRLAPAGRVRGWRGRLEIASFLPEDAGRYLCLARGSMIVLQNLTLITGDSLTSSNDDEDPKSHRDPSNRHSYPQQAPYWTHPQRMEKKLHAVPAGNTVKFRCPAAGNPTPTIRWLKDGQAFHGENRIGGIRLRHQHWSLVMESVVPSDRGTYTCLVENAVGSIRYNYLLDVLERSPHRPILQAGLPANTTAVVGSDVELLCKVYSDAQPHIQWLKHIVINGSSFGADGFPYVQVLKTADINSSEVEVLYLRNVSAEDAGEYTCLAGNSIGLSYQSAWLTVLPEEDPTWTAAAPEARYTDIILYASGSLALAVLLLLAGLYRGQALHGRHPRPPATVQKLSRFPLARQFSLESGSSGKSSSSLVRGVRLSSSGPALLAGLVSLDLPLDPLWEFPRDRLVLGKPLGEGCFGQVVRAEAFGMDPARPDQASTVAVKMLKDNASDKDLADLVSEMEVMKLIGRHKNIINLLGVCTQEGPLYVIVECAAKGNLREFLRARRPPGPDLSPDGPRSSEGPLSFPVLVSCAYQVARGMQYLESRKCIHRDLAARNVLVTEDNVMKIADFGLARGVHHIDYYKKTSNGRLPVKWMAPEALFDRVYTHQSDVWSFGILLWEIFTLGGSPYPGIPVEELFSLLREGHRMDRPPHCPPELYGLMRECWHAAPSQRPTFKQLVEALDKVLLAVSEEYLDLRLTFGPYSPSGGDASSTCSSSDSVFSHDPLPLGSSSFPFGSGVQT
The test is described as above. Conditions: read-out: FGFR4 (Kd nM). The procedure, abridged: as §1

The target of test [4] is T4, FGFR1 (Homo sapiens, UniProt P11362).
T4 construct: made in house; host or cells: E. coli (BL21-derived), T7 phage
T4 sequence (P11362 22-822): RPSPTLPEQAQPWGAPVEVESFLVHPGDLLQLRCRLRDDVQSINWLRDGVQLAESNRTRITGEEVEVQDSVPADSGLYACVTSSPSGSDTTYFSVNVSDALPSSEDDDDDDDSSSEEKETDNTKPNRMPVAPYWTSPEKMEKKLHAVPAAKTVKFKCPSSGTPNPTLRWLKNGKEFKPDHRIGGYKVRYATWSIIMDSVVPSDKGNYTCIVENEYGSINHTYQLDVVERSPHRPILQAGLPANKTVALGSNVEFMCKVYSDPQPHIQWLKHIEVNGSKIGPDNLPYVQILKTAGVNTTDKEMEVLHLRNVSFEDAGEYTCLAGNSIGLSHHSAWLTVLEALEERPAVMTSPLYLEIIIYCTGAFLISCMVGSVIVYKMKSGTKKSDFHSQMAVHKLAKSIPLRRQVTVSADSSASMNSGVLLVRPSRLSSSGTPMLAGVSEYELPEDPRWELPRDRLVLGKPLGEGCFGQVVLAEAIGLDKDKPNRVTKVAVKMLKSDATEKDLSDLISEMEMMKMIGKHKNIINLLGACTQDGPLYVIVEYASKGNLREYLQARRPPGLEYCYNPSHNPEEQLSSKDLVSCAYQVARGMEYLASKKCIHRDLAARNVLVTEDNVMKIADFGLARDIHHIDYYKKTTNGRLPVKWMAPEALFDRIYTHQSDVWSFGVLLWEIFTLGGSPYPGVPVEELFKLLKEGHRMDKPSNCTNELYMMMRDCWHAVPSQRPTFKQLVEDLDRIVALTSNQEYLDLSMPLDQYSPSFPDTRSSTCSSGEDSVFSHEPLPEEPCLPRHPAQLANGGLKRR
The test is described as above. The note with it: read-out: FGFR1 (Kd nM). The procedure, abridged:
as §1

Test [5] has as its target T5, FGFR2 (Homo sapiens, UniProt P21802).
T5 construct: made in house; host or cells: E. coli (BL21-derived), T7 phage
The test is described as above. The note with it: read-out: FGFR2 (Kd nM). The procedure, abridged:
as §1

For test [6], the system named is HuH7 cell line (FGF19 amplification). The experiment in a line: Cancer cell line cell viability assay (Cell Titer-Glo), 120 hr. The class given is cell-based. Conditions: Homo sapiens, Huh-7. The procedure, abridged: (§2)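 Cells seeded at 5,000-20,000/well, incubated overnight, then treated with a 9-dose, 4-fold dilution series from 3 μM in triplicate at 37° C, 5% CO2. Viability read by Cell Titer-Glo 2.0 luminescence as percent of DMSO control; IC50 from 4-parameter variable-slope sigmoidal fit.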
(In general: In ATP-based viability assays light output follows the ATP content of the culture.)

In test [7] the test system is RT112/84 cell line (FGFR3-fusion). The test is described as follows: Cancer cell line cell viability assay (Cell Titer-Glo), 72 hr. The class given is cell-based. The note with it: Homo sapiens, RT112/84, RT112/84 cell line (FGFR3-fusion). The gist of the method:
as §2

The test system of test [8] is KG-1 cell line (FGFR 1-fusion). The description is as above. In kind it is cell-based. Conditions: Homo sapiens, KG-1, KG-1 cell line (FGFR1-fusion). The procedure, abridged:
as §2

Test [9] has as its system KATO-III cell line (FGFR2 amplification). Described as above. In kind it is cell-based. The note with it: Homo sapiens, KATO III. The gist of the method: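 Luminescent ATP read-out (Cell Titer-Glo 2.0) after compound exposure, normalised to DMSO-only wells. Dosing: 9 concentrations, 4-fold steps, top 3 μM, triplicates. IC50 derived by log(inhibitor) vs. response 4-parameter fit.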

T5 sequence (P21802 22-821): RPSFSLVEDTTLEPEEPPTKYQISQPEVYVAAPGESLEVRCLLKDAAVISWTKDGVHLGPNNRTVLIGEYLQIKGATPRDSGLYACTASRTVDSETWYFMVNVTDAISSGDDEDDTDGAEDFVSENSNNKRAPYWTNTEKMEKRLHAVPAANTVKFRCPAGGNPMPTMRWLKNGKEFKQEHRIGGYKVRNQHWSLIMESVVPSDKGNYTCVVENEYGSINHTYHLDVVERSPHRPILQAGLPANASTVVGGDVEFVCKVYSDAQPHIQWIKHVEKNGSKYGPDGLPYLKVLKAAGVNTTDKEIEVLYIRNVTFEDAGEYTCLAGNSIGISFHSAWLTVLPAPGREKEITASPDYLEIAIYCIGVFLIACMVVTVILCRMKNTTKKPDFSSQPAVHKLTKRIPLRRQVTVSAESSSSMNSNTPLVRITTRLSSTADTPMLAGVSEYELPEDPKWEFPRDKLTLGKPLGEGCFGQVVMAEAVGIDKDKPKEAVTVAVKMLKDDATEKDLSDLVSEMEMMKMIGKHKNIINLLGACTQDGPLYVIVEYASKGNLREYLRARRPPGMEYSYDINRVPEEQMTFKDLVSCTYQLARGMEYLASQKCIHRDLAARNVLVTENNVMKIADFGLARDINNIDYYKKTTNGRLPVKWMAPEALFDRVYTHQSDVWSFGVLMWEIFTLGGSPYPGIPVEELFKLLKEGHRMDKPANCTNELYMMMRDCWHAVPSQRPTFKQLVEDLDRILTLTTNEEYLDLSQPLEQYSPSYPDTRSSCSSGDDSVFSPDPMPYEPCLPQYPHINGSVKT
T2 sequence (P22607 23-806): as the sequence (P22607 23-806 V555M) above, with M533V counted along it

With `COc1cc2[nH]nc(-c3cnc(N4CC(C)(NCP(C)(C)=O)C4)c(C#N)c3)c2cc1O[C@H](C)c1c(Cl)cncc1Cl` [Example 329, 5-[5-[(1R)-1-(3,5-dichloro-4-pyridyl)ethoxy]-6-methoxy-1H-indazol-3-yl]-2-[3-(dimethyl-phosphoryl-methylamino)-3-methyl-azetidin-1-yl]pyridine-3-carbonitrile], the Kd in test [1], in test [2], in test [3], in test [4] and in [5] was 1 to 50 nM in each case. The IC50 in [6] was 0.1 to 50 nM; in [7], 50 to 200 nM; in test [8], more than 1000 nM; in test [9] it was 200 to 1000 nM.
As for `C[C@@H](Oc1ccc2[nH]nc(-c3cnc(N4CC(C)(NC(=O)CN(C)C)C4)c(C#N)c3)c2c1)c1c(Cl)cncc1Cl` [Example 87, (R)-N-(1-(3-cyano-5-(5-(1-(3,5-dichloropyridin-4-yl)ethoxy)-1H-indazol-3-yl)pyridin-2-yl)-3-methylazetidin-3-yl)-2-(dimethylamino)acetamide], the Kd lay in the range of 1 to 50 nM in test [1]; 1 to 50 nM in test [2]; 1 to 50 nM in test [3]; 1 to 50 nM in test [4]; 50 to 300 nM in [5]. In addition, the IC50 in test [6] lay within 0.1 to 50 nM; in test [7], 50 to 200 nM; in test [8], 200 to 1000 nM; in test [9], 200 to 1000 nM.
In the case of `COc1cc2[nH]nc(-c3cnc(N4CC(C)(N5CC(C)(O)C5)C4)c(C#N)c3)c2cc1O[C@H](C)c1c(Cl)cncc1Cl` [Example 99, (R)-5-(5-(1-(3,5-dichloropyridin-4-yl)ethoxy)-6-methoxy-1H-indazol-3-yl)-2-(3-hydroxy-3,3′-dimethyl-[1,3′-biazetidin]-1′-yl)nicotinonitrile], the dissociation constant (Kd) in test [1], in [2], in test [3], in test [4] and in test [5] was 1 to 50 nM throughout. Also, the IC50 in test [6], in test [7], in test [8] and in test [9] was 0.1 to 50 nM throughout.
`C[C@@H](Oc1ccc2[nH]nc(-c3cnc(N4CC(C)(N[C@@H]5CCOC5)C4)c(C#N)c3)c2c1)c1c(Cl)cncc1Cl` [Example 33, 5-(5-((R)-1-(3,5-dichloropyridin-4-yl)ethoxy)-1H-indazol-3-yl)-2-(3-methyl-3-(((R)-tetrahydrofuran-3-yl)amino)azetidin-1-yl)nicotinonitrile]: the equilibrium dissociation constant (Kd) in test [1] was in the range of 1 to 50 nM; in test [2] it was 1 to 50 nM; in test [3], 1 to 50 nM; in [4], 50 to 300 nM; in [5], 1 to 50 nM. Further, the concentration for half-maximal inhibition (IC50) was in the range of 0.1 to 50 nM in [6], 50 to 200 nM in test [7], 200 to 1000 nM in test [8] and 50 to 200 nM in [9].
For `Cc1ncc(Cl)c([C@@H](C)Oc2ccc3[nH]nc(-c4cnc(N5CC(C)(NC6CCC6)C5)c(C#N)c4)c3c2)c1Cl` [Example 19, 2-[3-(cyclobutylamino)-3-methyl-azetidin-1-yl]-5-[5-[(1R)-1-(3,5-dichloro-2-methyl-4-pyridyl)ethoxy]-1H-indazol-3-yl]pyridine-3-carbonitrile], the Kd was in the range of 1 to 50 nM in [1]; 1 to 50 nM in test [2]; 1 to 50 nM in test [3]; 50 to 300 nM in test [4]; 300 to 1000 nM in test [5]. In addition, the 50% inhibitory concentration (IC50) is 0.1 to 50 nM in [6], 200 to 1000 nM in test [7], 200 to 1000 nM in [8] and more than 1000 nM in test [9].
